How the values were obtained:
Pyrenophora teres = Pyrenophora teres test (barley)/curative; assay type: in vivo; conditions: curative, application rate 250 g/ha, evaluation 7 days after inoculation
Method: Pyrenophora teres test (barley)/curative Solvent: 10 parts by weight of N-methyl-pyrrolidone Emulsifier: 0.6 parts by weight of alkylaryl polyglycol ether To produce a suitable preparation of active compound, 1 part by weight of active compound is mixed with the stated amounts of solvent and emulsifier, and the concentrate is diluted with water to the desired concentration. To test for curative activity, young plants are sprayed with a conidia suspension of Pyrenophora teres. The plants remain in an incubation cabin at 20° C. and 100% relative atmospheric humidity for 48 hours. The plants are subsequently sprayed with the preparation of active compound at the stated application rate. The plants are placed in a greenhouse at a temperature of approximately 20° C. and a relative atmospheric humidity of approximately 80%.

Leptosphaeria nodorum = Leptosphaeria nodorum test (wheat)/curative; assay type: in vivo; conditions: curative, application rate 125 g/ha, evaluation 10 days after inoculation
Method: Leptosphaeria nodorum test (wheat)/curative Solvent: 10 parts by weight of N-methyl-pyrrolidone Emulsifier: 0.6 parts by weight of alkylaryl polyglycol ether To produce a suitable preparation of active compound, 1 part by weight of active compound is mixed with the stated amounts of solvent and emulsifier, and the concentrate is diluted with water to the desired concentration. To test for curative activity, young plants are sprayed with a conidia suspension of Leptosphaeria nodorum. […] The plants are placed in a greenhouse at a temperature of approximately 15° C. and a relative atmospheric humidity of approximately 80%.

[1] = logP by HPLC (EEC directive 79/831 Annex V. A8, gradient method); assay type: physicochemical

chromatographic logP [1]: 2.2
Compound: CNC(=O)C(=NOC)c1ccccc1Oc1nccc(OC(C)C)n1 [Example 1, 2-[2-(4-isopropoxypyrimidin-2-yloxy)-phenyl]-2-methoxyimino-N-methylacetamide]
efficacy (Pyrenophora teres): 70% | efficacy (Leptosphaeria nodorum): more than 60%

Source: patent publication US6348471B1, “Pyrimidyl oxyphenylacetic acid derivatives” (Bayer Aktiengesellschaft, priority 1997, dated 2002)
